26 molecules from patent US12448369B2 (Edgewise Therapeutics, Inc., priority 2023, dated 2025) can be followed below.

The subject of test [1] is Rabbit Psoas myofibrils (skeletal myosin ATPase). Kind of test: Myofibril ATPase assay, rabbit psoas (skeletal) myofibrils. It is filed as biochemical. The following applies: rabbit psoas myofibrils. The method in brief: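 Values are concentrations giving 75% (Y75) or 125% (Y125) of vehicle ATPase activity, from 4-parameter logistic fits of normalized rates. Rates came from linear regression of A340 over 75 min, NADH oxidation coupled to ADP via PK-LDH. Enzyme source: skeletal myofibrils from rabbit psoas, pH 7.0 pCa buffer.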

Test [2] has as its system Porcine atria myofibrils (atrial myosin ATPase). Kind of test: Myofibril ATPase assay, porcine atria myofibrils. It is filed as biochemical. The following applies: porcine atria myofibrils. The method in brief:
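Y75 (25% inhibition) or Y125 (activation) values come from 4-parameter logistic fits of vehicle-normalized rates. Rates are linear-regression slopes of NADH absorbance at 340 nm, read kinetically over 75 min, with ADP coupled to NADH oxidation via pyruvate kinase/lactate dehydrogenase.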

Test [3] has as its target T1, Porcine ventricle myofibrils (ventricular myosin ATPase) (Sus scrofa, UniProt P79293).
T1 construct: Myofibrils from porcine cardiac muscle was isolated from the left ventricle of Yucatan minipigs; tissue Exemplar Genetics; host or cells: left ventricle of Yucatan minipigs, myofibrils prepared in house
Kind of test: Myofibril ATPase assay, porcine ventricle myofibrils. It is filed as biochemical, porcine (Yucatan minipigs). The following applies: porcine ventricle myofibrils. In outline:
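Left-ventricle myofibrils from Yucatan minipigs were tested with a PK/LDH-coupled system, following NADH loss at 340 nm every 1.5-2 min for 75 min. Slopes were normalized to vehicle wells and fit to a 4-parameter logistic model; values are Y75 (25% ATPase reduction) or Y125 concentrations.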

Where [4] appears, read: Y75 value (75% activity relative to no compound).
[5] abbreviates: ‡ Y125 value, not a Y75 value (125% activity relative to no compound).

T1 sequence (P79293 whole entry): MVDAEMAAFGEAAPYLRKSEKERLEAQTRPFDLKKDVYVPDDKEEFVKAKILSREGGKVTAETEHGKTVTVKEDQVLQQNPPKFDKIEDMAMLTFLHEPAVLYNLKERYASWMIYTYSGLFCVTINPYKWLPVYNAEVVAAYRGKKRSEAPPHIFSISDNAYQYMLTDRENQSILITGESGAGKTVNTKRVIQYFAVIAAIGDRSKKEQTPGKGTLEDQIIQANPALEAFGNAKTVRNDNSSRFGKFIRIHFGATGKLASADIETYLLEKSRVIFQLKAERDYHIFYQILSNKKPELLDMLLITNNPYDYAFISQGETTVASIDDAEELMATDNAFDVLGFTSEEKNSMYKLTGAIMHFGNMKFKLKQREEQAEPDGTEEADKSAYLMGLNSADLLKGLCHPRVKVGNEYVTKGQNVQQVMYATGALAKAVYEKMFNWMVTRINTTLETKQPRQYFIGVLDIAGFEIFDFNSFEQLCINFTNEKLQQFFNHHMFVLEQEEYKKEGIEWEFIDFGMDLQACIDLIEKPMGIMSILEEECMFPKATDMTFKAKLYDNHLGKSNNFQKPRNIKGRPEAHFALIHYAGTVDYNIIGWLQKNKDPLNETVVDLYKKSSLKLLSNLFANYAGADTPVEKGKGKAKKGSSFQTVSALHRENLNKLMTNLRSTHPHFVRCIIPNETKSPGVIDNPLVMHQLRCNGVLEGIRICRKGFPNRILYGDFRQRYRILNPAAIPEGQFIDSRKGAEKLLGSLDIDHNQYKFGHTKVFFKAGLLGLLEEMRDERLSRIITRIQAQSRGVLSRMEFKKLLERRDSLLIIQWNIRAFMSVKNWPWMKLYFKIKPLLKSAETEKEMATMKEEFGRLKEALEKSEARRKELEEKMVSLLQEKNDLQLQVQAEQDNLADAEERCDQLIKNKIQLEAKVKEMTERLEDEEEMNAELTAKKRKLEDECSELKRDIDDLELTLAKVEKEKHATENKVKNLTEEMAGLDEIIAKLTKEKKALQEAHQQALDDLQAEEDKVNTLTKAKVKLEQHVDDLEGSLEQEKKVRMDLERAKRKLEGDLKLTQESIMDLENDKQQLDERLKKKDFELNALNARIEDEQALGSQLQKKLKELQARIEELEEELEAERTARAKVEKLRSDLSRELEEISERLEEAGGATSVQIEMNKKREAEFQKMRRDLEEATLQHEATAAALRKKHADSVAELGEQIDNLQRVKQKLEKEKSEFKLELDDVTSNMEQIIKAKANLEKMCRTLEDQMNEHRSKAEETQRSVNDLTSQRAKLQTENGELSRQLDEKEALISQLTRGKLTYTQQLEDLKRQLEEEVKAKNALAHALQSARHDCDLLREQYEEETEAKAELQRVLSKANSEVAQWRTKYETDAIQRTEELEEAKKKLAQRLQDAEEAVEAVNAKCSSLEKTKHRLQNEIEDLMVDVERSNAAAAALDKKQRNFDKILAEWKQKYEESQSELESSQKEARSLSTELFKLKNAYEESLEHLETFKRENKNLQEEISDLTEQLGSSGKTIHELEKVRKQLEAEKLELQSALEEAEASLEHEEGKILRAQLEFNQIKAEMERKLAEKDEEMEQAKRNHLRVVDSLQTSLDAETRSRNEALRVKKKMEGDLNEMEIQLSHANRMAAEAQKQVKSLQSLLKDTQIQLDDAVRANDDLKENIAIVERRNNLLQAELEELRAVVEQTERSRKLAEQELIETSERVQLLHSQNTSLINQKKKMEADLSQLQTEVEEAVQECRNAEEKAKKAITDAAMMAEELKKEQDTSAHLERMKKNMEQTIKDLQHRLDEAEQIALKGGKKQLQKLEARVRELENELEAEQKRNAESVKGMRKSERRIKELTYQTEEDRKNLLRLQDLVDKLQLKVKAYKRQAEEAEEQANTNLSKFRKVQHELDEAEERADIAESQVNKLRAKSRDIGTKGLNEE

As for `Cc1nccc2[nH]c(=O)c([C@@H](C)C(=O)N[C@@H](C)c3ncc(C#N)cc3F)c(C)c12` (single isomer, unassigned) [compound 193], the “Skeletal EC25” value in test [1] (Y75 value) was 0.75 µM. Moreover, the “Atrial EC25” value in test [2] (setting [4]) was 0.47 µM. For the same molecule, the “Ventricular EC25” value in test [3] (Y75 value) was found to be 5.94 µM.
The matching figures for `Cc1c(CC(=O)N[C@@H](C)c2ccc(F)cc2F)c(=O)[nH]c2ccnc(OC3CC3)c12` [compound 386]: 0.03 µM, 0.12 µM and 1.51 µM.
With `C[C@H](NC(=O)Cc1c(C2CC2)c2c(F)c(F)ccc2[nH]c1=O)c1ccc(C#N)nn1` (single isomer, unassigned) [compound 2066], in test [1] (Y75 value (no ‡ mark)), the “Skeletal EC25” value was found to be 0.15 µM. Moreover, the “Atrial EC25” value in test [2] (Y75 value (no ‡ mark)) came out at 1.06 µM. For the same molecule, the “Ventricular EC25” value in test [3] (Y75 value (no ‡ mark)) worked out at 7.88 µM.
The matching figures for `C[C@H](NC(=O)C(F)(F)c1cc2c(F)c(F)ccc2[nH]c1=O)c1ncc(C#N)cn1` (single isomer, unassigned) [compound 2546]: 0.19 µM, 0.20 µM and 1.23 µM.
Take `Cc1c(C(F)(F)C(=O)N[C@H](C)c2ccc(F)cc2F)c(=O)[nH]c2ccc(F)cc12` [compound 4815]: the “Skeletal EC25” value in test [1] (Y75 value (no ‡ mark)) was 1.04 µM. In addition, the “Atrial EC25” value in test [2] (Y75 value (no ‡ mark)) was determined as 1.05 µM. Moreover, the “Ventricular EC25” value in test [3] (Y75 value (no ‡ mark)) was found to be 100.00 µM.
For the molecule `Cc1c(CC(=O)N[C@@H](C)c2ncc(C#N)cc2F)c(=O)[nH]c2cccc(F)c12` [compound 52], the “Skeletal EC25” value in test [1] (Y75 value (no ‡ mark)) was 0.02 µM. Further, the “Atrial EC25” value in test [2] (Y75 value (no ‡ mark)) is 0.06 µM. For the same molecule, the “Ventricular EC25” value in test [3] (Y75 value (no ‡ mark)) was determined as 0.10 µM.
In the case of `Cc1ccc2[nH]c(=O)c(CC(=O)N[C@@H](C)c3ncc(C#N)cn3)cc2c1F` (single isomer, unassigned) [compound 2014], the “Skeletal EC25” value in test [1] (Y75 value (no ‡ mark)) was 100.00 µM. Moreover, the “Atrial EC25” value in test [2] (Y75 value (no ‡ mark)) came out at 100.00 µM. Besides, in test [3] (setting [5]), the “Ventricular EC25” value is recorded as 100.00‡ μM.
As to `Cc1c(C(F)(F)C(=O)N[C@@H](C)c2cnc(C#N)cn2)c(=O)[nH]c2ccc(F)cc12` (single isomer, unassigned) [compound 2564], the “Skeletal EC25” value in test [1] (Y75 value (no ‡ mark)) was 0.49 µM. The “Atrial EC25” value in test [2] (Y75 value (no ‡ mark)) was 0.51 µM. For the same molecule, the “Ventricular EC25” value in test [3] (Y75 value (no ‡ mark)) was found to be 0.89 µM.
As for `C[C@@H](NC(=O)Cc1c(C2CC2)c2cnccc2[nH]c1=O)c1ncc(C#N)cc1F` [compound 142], the “Skeletal EC25” value in test [1] (Y75 value) stood at 100.00 µM. For the same molecule, in test [2] (setting [4]), the “Atrial EC25” value was 100.00 µM. Moreover, in test [3] (Y75 value), the “Ventricular EC25” value was 100.00 µM.
`C[C@@H](NC(=O)Cc1c(C2CC2)c2cnccc2[nH]c1=O)c1ccc(C#N)cn1` [compound 140]: in test [1] (Y75 value), the “Skeletal EC25” value came to 42.18 µM. Further, the “Atrial EC25” value in test [2] (setting [4]) was determined as 100.00 µM. Further, the “Ventricular EC25” value in test [3] (Y75 value) turned out to be 100.00 µM.
With `Cc1cc(F)cc(F)c1[C@H](C)NC(=O)Cc1c(C)c2c(C)nccc2[nH]c1=O` (single isomer, unassigned) [compound 403], in test [1] (Y75 value), the “Skeletal EC25” value came to 0.19 µM. Also, the “Atrial EC25” value in test [2] (setting [4]) was 40.23 µM. Further, the “Ventricular EC25” value in test [3] (Y75 value) is 2.08 µM.
For the molecule `CCc1c(CC(=O)N[C@H](C)c2ncc(C#N)cn2)c(=O)[nH]c2ccc(F)c(C)c12` (single isomer, unassigned) [compound 2001], the “Skeletal EC25” value in test [1] (Y75 value (no ‡ mark)) was 0.27 µM. The “Atrial EC25” value in test [2] (Y75 value (no ‡ mark)) was 0.33 µM. For the same molecule, the “Ventricular EC25” value in test [3] (Y75 value (no ‡ mark)) stood at 0.49 µM.
For `COc1ccc([C@H](C)NC(=O)Cc2c(C)c3c(C)nccc3[nH]c2=O)cn1` (single isomer, unassigned) [compound 291], in test [1] (Y75 value), the “Skeletal EC25” value was 100.00 µM. Also, the “Atrial EC25” value in test [2] (setting [4]) is 100.00 µM. Further, the “Ventricular EC25” value in test [3] (Y75 value) amounted to 100.00 µM.
With `Cc1nccc2[nH]c(=O)c([C@H](C)C(=O)N[C@H](C)c3ncc(C#N)cc3F)c(C)c12` (single isomer, unassigned) [compound 192], the “Skeletal EC25” value in test [1] (Y75 value) amounted to 0.55 µM. The “Atrial EC25” value in test [2] (setting [4]) was 0.59 µM. In test [3] (Y75 value), the “Ventricular EC25” value is 14.65 µM.
Take `Cc1c(C(F)(F)C(=O)N[C@@H](C)c2nccc(C#N)n2)c(=O)[nH]c2ccc(F)cc12` (single isomer, unassigned) [compound 2528]: the “Skeletal EC25” value in test [1] (setting [5]) is on record as 93.23‡ μM. Further, the “Atrial EC25” value in test [2] (Y75 value (no ‡ mark)) was 4.45 µM. For the same molecule, the “Ventricular EC25” value in test [3] (Y75 value (no ‡ mark)) is 100.00 µM.
On to `Cc1nccc2[nH]c(=O)c(CC(=O)N[C@H]3COc4cc(F)cc(F)c43)c(C)c12` (single isomer, unassigned) [compound 289], for which, in test [1] (Y75 value), the “Skeletal EC25” value was 2.54 µM. The “Atrial EC25” value in test [2] (setting [4]) turned out to be 28.00 µM. Further, the “Ventricular EC25” value in test [3] (Y75 value) was found to be 100.00 µM.
Turning to `C[C@@H](NC(=O)Cc1cc2c(F)c(F)ccc2[nH]c1=O)c1ccc(C#N)cn1` [compound 17], the “Skeletal EC25” value in test [1] (Y75 value (no ‡ mark)) was determined as 0.43 µM. For the same molecule, the “Atrial EC25” value in test [2] (Y75 value (no ‡ mark)) came out at 0.09 µM. Further, the “Ventricular EC25” value in test [3] (Y75 value (no ‡ mark)) came to 1.56 µM.
Take `Cc1c(CC(=O)N[C@H](C)c2ccc(C#N)cc2F)c(=O)[nH]c2ccnc(OC3CC3)c12` [compound 201]: in test [1] (Y75 value), the “Skeletal EC25” value was found to be 1.02 µM. Besides, the “Atrial EC25” value in test [2] (setting [4]) is 100.00 µM. Also, in test [3] (Y75 value), the “Ventricular EC25” value amounted to 100.00 µM.
For `C[C@H](NC(=O)Cc1c(C(F)(F)F)c2ccccc2[nH]c1=O)c1ccc(F)cc1F` [compound 129], the “Skeletal EC25” value in test [1] (Y75 value (no ‡ mark)) came to 0.04 µM. Besides, in test [2] (Y75 value (no ‡ mark)), the “Atrial EC25” value was 0.21 µM. Besides, the “Ventricular EC25” value in test [3] (Y75 value (no ‡ mark)) is 0.75 µM.
As for `Cc1nc(C#N)cnc1[C@H](C)NC(=O)Cc1cc2cc(F)c(F)cc2[nH]c1=O` (single isomer, unassigned) [compound 6], the “Skeletal EC25” value in test [1] (Y75 value (no ‡ mark)) stood at 0.30 µM. Besides, the “Atrial EC25” value in test [2] (Y75 value (no ‡ mark)) stood at 0.81 µM. In addition, the “Ventricular EC25” value in test [3] (Y75 value (no ‡ mark)) turned out to be 0.95 µM.
The matching figures for `Cc1nc(C#N)ccc1[C@H](C)NC(=O)Cc1c(C)c2cc(F)ccc2[nH]c1=O` [compound 1051]: 0.03 µM, 0.14 µM and 0.26 µM.
Regarding `CCOc1nccc2[nH]c(=O)c([C@@H](C)C(=O)N[C@@H](C)c3ccc(F)cc3F)c(C(F)(F)F)c12` (single isomer, unassigned) [compound 416], the “Skeletal EC25” value in test [1] (Y75 value) came to 0.46 µM. Further, the “Atrial EC25” value in test [2] (setting [4]) amounted to 100.00 µM. Further, the “Ventricular EC25” value in test [3] (Y75 value) was 100.00 µM.
As for `Cc1c(C2(C(=O)N[C@H](C)c3nccc(C#N)n3)CC2)c(=O)[nH]c2ccc(F)cc12` (single isomer, unassigned) [compound 4841], in test [1] (Y75 value (no ‡ mark)), the “Skeletal EC25” value came to 100.00 µM. Further, in test [2] (Y75 value (no ‡ mark)), the “Atrial EC25” value came out at 97.50 µM. Also, in test [3] (Y75 value (no ‡ mark)), the “Ventricular EC25” value is 100.00 µM.
With `Cc1c(CC(=O)N[C@H](C)c2ncc(C#N)cn2)c(=O)[nH]c2cc(F)ccc12` [compound 1040], in test [1] (Y75 value (no ‡ mark)), the “Skeletal EC25” value worked out at 52 µM. Also, in test [2] (Y75 value (no ‡ mark)), the “Atrial EC25” value worked out at 6.01 µM. In addition, in test [3] (Y75 value (no ‡ mark)), the “Ventricular EC25” value came out at 12 µM.
Regarding `Cc1nccc2[nH]c(=O)c(CC(=O)N[C@H]3CCc4cc(C#N)cc(F)c43)c(C)c12` (single isomer, unassigned) [compound 198], the “Skeletal EC25” value in test [1] (Y75 value) is 0.02 µM. Further, the “Atrial EC25” value in test [2] (setting [4]) was determined as 0.31 µM. In addition, the “Ventricular EC25” value in test [3] (Y75 value) was 0.18 µM.
On the same counts, the results for `Cc1nccc2[nH]c(=O)c(CC(=O)N[C@H](CO)c3ncc(C#N)cc3F)c(C)c12` (single isomer, unassigned) [compound 247] are 4.60 µM, 34.93 µM and 100.00 µM.
